We go through 18 compounds from patent US9051311B2, “Sulfamide sodium channel inhibitors” (AMGEN INC., priority 2012, dated 2015).

pIC50: −log10 of the molar value. Structures can show the parent of a compound that is named as a salt. Where only a bound is given, the exact number is not on record here.

Assay [1] concerns the target T1, Nav 1.7 (Homo sapiens (Human), UniProt Q15858). Briefly: Nav 1.7 IonWorks Quattro (IWQ) in vitro assay, population patch-clamp.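 Also: cells held at −110 mV for 3 s, then 26 pulses of 150 ms at 5 Hz, leak-corrected peak current, percent block measured before and after compound, 3–8 min exposure.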 In kind it is cell-based. Conditions: 293 cells stably transfected with Nav 1.7; block at 26th pulse to −20 mV. For orientation: In patch-clamp work, channel activity is measured electrically.
In assay [2] the target is T1, Nav 1.7. Briefly: Nav 1.7 in vitro PatchExpress (PX) assay, whole cell voltage clamp. It is filed as cell-based. Conditions: 293 cells stably transfected with human Nav1.7; partially inactivated state (20 to 50% inactivation). On the procedure:
Nav 1.7 In Vitro PatchExpress (PX) Assay
293 cells stably transfected with human Nav1.7 were recorded in whole cell voltage clamp mode with the PatchXpress automated electrophysiology system (Molecular Devices, LLC, Sunnyvale, Calif.). Compound effects were measured on a partially inactivated state of the sodium channel. Cells were clamped to a holding potential yielding 20 to 50% inactivation. To elicit sodium current, channels were activated by pulsing to −10 mV for 20 msec. This voltage protocol was repeated at a rate of 0.1 Hz throughout the experiment. A single concentration of test compound was applied to cells for a duration of 3 minutes. Peak sodium current was measured at the end of the compound addition period to determine percent inhibition.

In the next assay the target is Nav 1.5 (Homo sapiens (Human), UniProt Q14524). In words: cell-based.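 Also: HEK293 cells stably expressing Nav1.5, sodium current at the 26th of 26 pulses to −20 mV (150 ms, 5 Hz) after compound versus before, leak-corrected, 3–8 min exposure.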
Chain of Nav 1.5 (Q14524 whole entry): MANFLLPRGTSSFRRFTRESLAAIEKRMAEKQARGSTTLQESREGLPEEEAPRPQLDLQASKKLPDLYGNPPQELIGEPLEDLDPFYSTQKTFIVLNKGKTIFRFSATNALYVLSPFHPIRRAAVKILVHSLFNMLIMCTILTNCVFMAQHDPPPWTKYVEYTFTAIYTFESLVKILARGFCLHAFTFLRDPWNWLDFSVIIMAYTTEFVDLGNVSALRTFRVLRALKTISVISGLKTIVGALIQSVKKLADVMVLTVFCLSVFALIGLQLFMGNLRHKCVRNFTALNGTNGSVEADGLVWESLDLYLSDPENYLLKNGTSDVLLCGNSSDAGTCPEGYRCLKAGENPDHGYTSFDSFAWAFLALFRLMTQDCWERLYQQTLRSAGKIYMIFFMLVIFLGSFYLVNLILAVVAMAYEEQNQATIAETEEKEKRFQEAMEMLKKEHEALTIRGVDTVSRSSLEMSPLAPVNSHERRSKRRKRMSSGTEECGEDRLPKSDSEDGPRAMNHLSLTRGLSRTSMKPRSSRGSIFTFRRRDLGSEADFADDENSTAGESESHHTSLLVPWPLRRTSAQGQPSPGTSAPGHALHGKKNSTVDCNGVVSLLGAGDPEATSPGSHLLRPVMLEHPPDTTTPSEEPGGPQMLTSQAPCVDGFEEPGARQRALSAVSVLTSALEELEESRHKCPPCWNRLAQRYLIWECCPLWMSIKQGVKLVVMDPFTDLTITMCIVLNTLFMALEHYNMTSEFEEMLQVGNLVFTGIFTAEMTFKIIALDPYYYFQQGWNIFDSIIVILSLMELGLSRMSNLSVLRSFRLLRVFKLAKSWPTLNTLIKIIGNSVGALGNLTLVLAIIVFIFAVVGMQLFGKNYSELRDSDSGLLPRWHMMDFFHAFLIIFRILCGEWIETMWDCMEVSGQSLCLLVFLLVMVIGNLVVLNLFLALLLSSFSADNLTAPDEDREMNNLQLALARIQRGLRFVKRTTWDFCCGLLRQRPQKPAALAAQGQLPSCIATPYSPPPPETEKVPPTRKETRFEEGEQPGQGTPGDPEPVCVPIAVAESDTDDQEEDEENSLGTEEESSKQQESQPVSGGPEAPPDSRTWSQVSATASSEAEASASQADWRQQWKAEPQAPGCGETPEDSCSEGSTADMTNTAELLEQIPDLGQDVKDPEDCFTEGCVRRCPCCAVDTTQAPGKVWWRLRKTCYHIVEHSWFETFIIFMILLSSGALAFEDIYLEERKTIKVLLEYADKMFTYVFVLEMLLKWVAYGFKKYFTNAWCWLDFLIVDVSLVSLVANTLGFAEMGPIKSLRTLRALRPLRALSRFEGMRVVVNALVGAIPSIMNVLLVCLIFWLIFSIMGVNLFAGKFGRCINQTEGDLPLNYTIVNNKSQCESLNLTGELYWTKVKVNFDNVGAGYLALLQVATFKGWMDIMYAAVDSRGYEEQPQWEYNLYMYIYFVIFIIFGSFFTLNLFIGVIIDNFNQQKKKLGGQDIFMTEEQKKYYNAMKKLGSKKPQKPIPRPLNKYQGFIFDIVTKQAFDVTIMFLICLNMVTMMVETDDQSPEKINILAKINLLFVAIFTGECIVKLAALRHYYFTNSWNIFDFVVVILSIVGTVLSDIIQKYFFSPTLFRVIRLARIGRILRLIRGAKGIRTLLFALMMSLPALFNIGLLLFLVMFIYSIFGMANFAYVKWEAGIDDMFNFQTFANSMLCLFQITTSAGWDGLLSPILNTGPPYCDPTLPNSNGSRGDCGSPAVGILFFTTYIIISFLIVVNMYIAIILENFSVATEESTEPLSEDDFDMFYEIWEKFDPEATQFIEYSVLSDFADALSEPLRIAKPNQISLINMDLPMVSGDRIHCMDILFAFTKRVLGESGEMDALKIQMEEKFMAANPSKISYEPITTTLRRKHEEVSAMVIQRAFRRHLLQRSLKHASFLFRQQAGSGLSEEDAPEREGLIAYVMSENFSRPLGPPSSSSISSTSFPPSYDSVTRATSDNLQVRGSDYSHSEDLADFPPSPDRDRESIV

T1 sequence (Q15858 whole entry): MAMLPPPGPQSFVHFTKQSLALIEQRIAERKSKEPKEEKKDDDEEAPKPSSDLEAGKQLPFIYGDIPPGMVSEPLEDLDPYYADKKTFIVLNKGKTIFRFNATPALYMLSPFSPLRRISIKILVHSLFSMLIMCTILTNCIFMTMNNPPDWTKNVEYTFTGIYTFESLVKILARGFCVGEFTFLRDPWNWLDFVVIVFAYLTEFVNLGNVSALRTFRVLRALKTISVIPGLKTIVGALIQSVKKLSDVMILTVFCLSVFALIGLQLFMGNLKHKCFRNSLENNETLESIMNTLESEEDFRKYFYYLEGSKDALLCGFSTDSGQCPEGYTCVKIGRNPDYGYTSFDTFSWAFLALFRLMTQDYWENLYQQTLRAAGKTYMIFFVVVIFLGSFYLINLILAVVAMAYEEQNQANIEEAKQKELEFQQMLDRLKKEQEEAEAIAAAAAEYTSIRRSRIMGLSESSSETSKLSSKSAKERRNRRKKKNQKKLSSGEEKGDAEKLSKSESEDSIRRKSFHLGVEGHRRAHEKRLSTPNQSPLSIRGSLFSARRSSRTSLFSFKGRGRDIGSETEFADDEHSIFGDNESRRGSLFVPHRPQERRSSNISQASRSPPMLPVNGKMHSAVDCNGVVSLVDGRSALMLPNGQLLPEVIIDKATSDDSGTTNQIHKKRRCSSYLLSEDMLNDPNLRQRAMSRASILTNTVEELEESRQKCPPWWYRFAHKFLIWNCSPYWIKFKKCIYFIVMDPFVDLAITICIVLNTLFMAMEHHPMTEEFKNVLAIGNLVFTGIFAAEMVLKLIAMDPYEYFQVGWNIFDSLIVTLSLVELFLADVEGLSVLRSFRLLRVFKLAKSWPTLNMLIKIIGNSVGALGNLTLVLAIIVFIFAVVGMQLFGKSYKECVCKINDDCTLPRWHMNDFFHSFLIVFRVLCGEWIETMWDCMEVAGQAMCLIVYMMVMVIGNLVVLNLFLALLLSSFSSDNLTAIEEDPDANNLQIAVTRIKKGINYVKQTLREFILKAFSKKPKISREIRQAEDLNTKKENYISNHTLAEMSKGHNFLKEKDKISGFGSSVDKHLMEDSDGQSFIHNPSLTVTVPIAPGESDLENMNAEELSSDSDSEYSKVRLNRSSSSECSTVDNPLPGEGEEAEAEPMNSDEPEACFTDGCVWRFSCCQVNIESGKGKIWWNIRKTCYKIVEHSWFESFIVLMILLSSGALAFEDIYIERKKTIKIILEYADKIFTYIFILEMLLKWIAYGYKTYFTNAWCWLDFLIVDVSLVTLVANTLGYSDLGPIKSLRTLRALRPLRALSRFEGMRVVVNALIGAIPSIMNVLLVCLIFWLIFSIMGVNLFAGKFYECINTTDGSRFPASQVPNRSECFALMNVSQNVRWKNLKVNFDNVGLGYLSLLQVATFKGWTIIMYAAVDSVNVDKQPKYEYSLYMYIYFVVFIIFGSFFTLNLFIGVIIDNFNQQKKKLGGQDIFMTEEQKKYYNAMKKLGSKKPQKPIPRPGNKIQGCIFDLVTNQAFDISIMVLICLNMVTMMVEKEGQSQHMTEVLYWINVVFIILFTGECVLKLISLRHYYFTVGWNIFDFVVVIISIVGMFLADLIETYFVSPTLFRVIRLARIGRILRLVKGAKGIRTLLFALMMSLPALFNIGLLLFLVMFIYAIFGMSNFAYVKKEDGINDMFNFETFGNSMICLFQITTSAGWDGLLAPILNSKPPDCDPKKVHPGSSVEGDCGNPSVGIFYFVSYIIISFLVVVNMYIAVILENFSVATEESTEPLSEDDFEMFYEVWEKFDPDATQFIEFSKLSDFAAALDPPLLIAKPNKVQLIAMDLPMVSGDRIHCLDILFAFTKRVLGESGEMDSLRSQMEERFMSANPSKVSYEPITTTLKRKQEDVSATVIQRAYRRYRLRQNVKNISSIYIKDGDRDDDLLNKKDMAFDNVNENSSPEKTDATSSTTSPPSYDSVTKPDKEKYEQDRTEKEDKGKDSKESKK
Procedure for Nav 1.5: Nav 1.7 and Nav 1.5 Ion Works Quattro (IWQ) In Vitro Assays
293 cells stably transfected with either Nav 1.7 or with Nav 1.5 were recorded in population patch-clamp mode with the IonWorks® Quattro automated electrophysiology system in accordance with the manufacturer's specifications (Molecular Devices, LLC, Sunnyvale, Calif.). Sodium channel currents were measured in response to a train of depolarizations that induced successively greater inactivation.
Cells were held at −110 mV for three seconds (Nav 1.7) or half a second (Nav 1.5) from a holding voltage of −15 mV, then put through a series of 26 pulses of 150 msec duration to −20 mV at a frequency of 5 Hz. Cells were then left unclamped for a period of 3 to 8 minutes while a single concentration of test compound was added. Cells were then reclamped and put through the same voltage protocol. Current at the end of the 26th pulse to −20 mV was subtracted from the peak current evoked by the 26th pulse to −20 mV to correct for leak current. Percent block was calculated for each concentration in duplicate, and IC50 curves were fitted to percent block as a function of concentration.

As usually defined, the pIC50 is −log10 of the IC50, conventionally taken in molar units. Regarding `O=S(=O)(Nc1ncns1)N1CCc2c(cccc2-c2ccc(C(F)(F)F)cc2-c2cncnc2)C1` [Example 23, 5-(2-(Pyrimidin-5-yl)-4-(trifluoromethyl)phenyl)-N-(1,2,4-thiadiazol-5-yl)-3,4-dihydroisoquinoline-2(1H)-sulfonamide], the values for the pIC50 on Nav 1.7 [1], on Nav 1.7 [2] and against Nav 1.5 were 6.73, 6.10 and less than 5.00, respectively.
For `O=S(=O)(Nc1ncns1)N1CCc2c(cccc2-c2ccc(C(F)(F)F)cc2C2=CCOCC2)C1` [Example 19, 5-(2-(3,6-Dihydro-2H-pyran-4-yl)-4-(trifluoromethyl)phenyl)-N-(1,2,4-thiadiazol-5-yl)-3,4-dihydroisoquinoline-2(1H)-sulfonamide], the pIC50 at Nav 1.7 [1] is 6.42; on Nav 1.7 [2], 5.77; against Nav 1.5, less than 5.00.
For the compound `O=S(=O)(Nc1ncns1)N1CCc2c(cccc2-c2cccc3c2CCNC3)C1` [Example 13, N-(1,2,4-Thiadiazol-5-yl)-1′,2′,3,3′,4,4′-hexahydro-[5,5′-biisoquinoline]-2(1H)-sulfonamide hydrochloride], the pIC50 was 5.41 on Nav 1.7 [1], less than 4.52 on Nav 1.7 [2] and less than 5.00 on Nav 1.5.
In the case of `COc1cc(C(F)(F)F)ccc1-c1nccc2c1CCN(S(=O)(=O)Nc1ncns1)C2` [Example 46, 5-(2-Methoxy-4-(trifluoromethyl)phenyl)-N-(1,2,4-thiadiazol-5-yl)-3,4-dihydro-2,6-naphthyridine-2(1H)-sulfonamide], the pIC50 at Nav 1.7 [1] was 7.72; on Nav 1.7 [2] it was 6.03; at Nav 1.5 it was less than 5.00.
For `O=S(=O)(Nc1ncns1)N1CCc2c(cccc2-c2ccc(C(F)(F)F)cc2F)C1` [Example 8, 5-(2-Fluoro-4-(trifluoromethyl)phenyl)-N-(1,2,4-thiadiazol-5-yl)-3,4-dihydroisoquinoline-2(1H)-sulfonamide], the pIC50 against Nav 1.7 [1] is 5.74; against Nav 1.7 [2], 5.50; on Nav 1.5 it was less than 5.00.
On to `O=S(=O)(Nc1ncc(F)s1)N1CCc2c(cccc2-c2ccc(C(F)(F)F)cc2C2=CCNCC2)C1` [Example 33, N-(5-Fluorothiazol-2-yl)-5-(2-(1,2,3,6-tetrahydropyridin-4-yl)-4-(trifluoromethyl)phenyl)-3,4-dihydroisoquinoline-2(1H)-sulfonamide hydrochloride], for which the figures for the pIC50 on Nav 1.7 [1], at Nav 1.7 [2] and against Nav 1.5 were 6.45, 6.72 and less than 5.00, respectively.
As to `COc1cc(C2CC2)ccc1-c1nccc2c1CCN(S(=O)(=O)Nc1ncns1)C2` [Example 47, 5-(4-Cyclopropyl-2-methoxyphenyl)-N-(1,2,4-thiadiazol-5-yl)-3,4-dihydro-2,6-naphthyridine-2(1H)-sulfonamide], the pIC50 is 7.23 against Nav 1.7 [1], 6.25 against Nav 1.7 [2] and less than 5.00 against Nav 1.5.
With `COc1ccc(OC)c(-c2cccc3c2CCN(S(=O)(=O)Nc2ncns2)C3)c1` [Example 27, 5-(2,5-Dimethoxyphenyl)-N-(1,2,4-thiadiazol-5-yl)-3,4-dihydroisoquinoline-2(1H)-sulfonamide], the pIC50 on Nav 1.7 [1] is 6.90; against Nav 1.7 [2], 6.17; against Nav 1.5, less than 5.00.
With `Cc1cncn1-c1cc(C(F)(F)F)ccc1-c1cccc2c1CCN(S(=O)(=O)Nc1ncc(F)s1)C2` [Example 43, N-(5-Fluorothiazol-2-yl)-5-(2-(5-methyl-1H-imidazol-1-yl)-4-(trifluoromethyl)phenyl)-3,4-dihydroisoquinoline-2(1H)-sulfonamide], the pIC50 was 6.77 on Nav 1.7 [1], 5.72 at Nav 1.7 [2] and less than 5.00 against Nav 1.5.
Consider `O=S(=O)(Nc1ncns1)N1CCc2c(cccc2-c2ccc(C(F)(F)F)cc2)C1` [Example 7, N-(1,2,4-Thiadiazol-5-yl)-5-(4-(trifluoromethyl)phenyl)-3,4-dihydroisoquinoline-2(1H)-sulfonamide], for which the pIC50 against Nav 1.7 [1] was 5.79; at Nav 1.7 [2], 5.24; at Nav 1.5, less than 5.00.
The matching figures for `Cn1cc(-c2cc(C(F)(F)F)ccc2-c2cccc3c2CCN(S(=O)(=O)Nc2ncns2)C3)cn1` [Example 16, 5-(2-(1-Methyl-1H-pyrazol-4-yl)-4-(trifluoromethyl)phenyl)-N-(1,2,4-thiadiazol-5-yl)-3,4-dihydroisoquinoline-2(1H)-sulfonamide]: 5.58, 5.27 and less than 5.00.
As for `O=S(=O)(Nc1ncns1)N1CCc2c(cccc2-c2ccc(C(F)(F)F)cc2Cl)C1` [Example 9, 5-(2-Chloro-4-(trifluoromethyl)phenyl)-N-(1,2,4-thiadiazol-5-yl)-3,4-dihydroisoquinoline-2(1H)-sulfonamide], the pIC50 against Nav 1.7 [1] was 6.32; at Nav 1.7 [2] it was 6.21; against Nav 1.5, less than 5.00.
On to `O=S(=O)(Nc1nccs1)N1CCc2c(cccc2-c2ccc(C(F)(F)F)cc2C2=CCNCC2)C1` [Example 36, 5-(2-(1,2,3,6-Tetrahydropyridin-4-yl)-4-(trifluoromethyl)phenyl)-N-(thiazol-2-yl)-3,4-dihydroisoquinoline-2(1H)-sulfonamide hydrochloride], for which the values for the pIC50 against Nav 1.7 [1], against Nav 1.7 [2] and at Nav 1.5 were 5.72, 5.33 and less than 5.00, respectively.
For `O=S(=O)(Nc1ncns1)N1CCc2c(cccc2-c2ccc(C(F)(F)F)cc2N2CCOCC2)C1` [Example 31, 5-(2-Morpholino-4-(trifluoromethyl)phenyl)-N-(1,2,4-thiadiazol-5-yl)-3,4-dihydroisoquinoline-2(1H)-sulfonamide], the pIC50 was 6.12 on Nav 1.7 [1], 5.76 at Nav 1.7 [2] and less than 5.00 against Nav 1.5.
For `COc1ccc(F)cc1-c1cccc2c1CCN(S(=O)(=O)Nc1ncns1)C2` [Example 29, 5-(5-Fluoro-2-methoxyphenyl)-N-(1,2,4-thiadiazol-5-yl)-3,4-dihydroisoquinoline-2(1H)-sulfonamide], the pIC50 was 7.20 on Nav 1.7 [1], 6.43 against Nav 1.7 [2] and less than 5.00 against Nav 1.5.
For the compound `CN1CC=C(c2ccc(C(F)(F)F)cc2-c2cccc3c2CCN(S(=O)(=O)Nc2ncc(F)s2)C3)CC1` [Example 40, N-(5-Fluorothiazol-2-yl)-5-(2-(1-methyl-1,2,3,6-tetrahydropyridin-4-yl)-5-(trifluoromethyl)phenyl)-3,4-dihydroisoquinoline-2(1H)-sulfonamide], the pIC50 is 5.55 against Nav 1.7 [1], 4.92 on Nav 1.7 [2] and less than 5.00 against Nav 1.5.
On to `O=S(=O)(Nc1ccncn1)N1CCc2c(cccc2-c2ccc(C(F)(F)F)cc2C2=CCNCC2)C1` [Example 37, N-(Pyrimidin-4-yl)-5-(2-(1,2,3,6-tetrahydropyridin-4-yl)-4-(trifluoromethyl)phenyl)-3,4-dihydroisoquino line-2(1H)-sulfonamide], for which the pIC50 at Nav 1.7 [1] is 5.40; against Nav 1.7 [2], 4.72; at Nav 1.5, less than 5.00.
Turning to `O=S(=O)(Nc1ncns1)N1CCc2c(cccc2-c2ccc(C(F)(F)F)cc2-n2ccnc2)C1` [Example 32, 5-(2-(1H-Imidazol-1-yl)-4-(trifluoromethyl)phenyl)-N-(1,2,4-thiadiazol-5-yl)-3,4-dihydroisoquinoline-2(1H)-sulfonamide], the pIC50 against Nav 1.7 [1] is 7.59; against Nav 1.7 [2], 6.66; at Nav 1.5 it was 5.18.
